Test results taken from ChEMBL document CHEMBL1201862, “PubChem BioAssay data set” (2004).
Active and inactive are the calls of the source.

Experiments:
[1] = molecular target: Photoreceptor-specific nuclear receptor (Homo sapiens, UniProt Q9Y5X4); type: functional, cell-based;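 note: CHO-S cells with Gal4-NCOR and VP16-NR2E3 two-hybrid luciferase reporter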
[2] = HEK293 cell cytotoxicity, dose response, cytotoxicity control, cherry-picks, set 5 (AID 1053117); type: functional, cell-based
[3] = A549 cell cytotoxicity, dose response, cytotoxicity control, cherry-picks, 26 µM top dose (AID 1053119); type: functional, cell-based
[4] = inhibitors of fibronectin matrix deposition, dose response, AH1F cells, Alexa488-FN fluorescence, cherry-picks (AID 1035475); type: functional, cell-based
[5] = P. falciparum Dd2 growth inhibitors, dose response, SYBR Green, dry powder samples, set 9 (AID 1159568); type: functional, cell-based
[6] = molecular target: Metabotropic glutamate receptor 5 (Rattus norvegicus, UniProt P31424); assay: Identification of a glycine sulfonamide based non-MPEP site positive allosteric potentiator (PAM) of mGlu5 (calcium_assay).; type: functional
[7] = molecular target: T1, RNA-binding protein pos-1 (Caenorhabditis elegans, UniProt G5EF15); assay: inhibitors of POS-1/mex-3 RNA binding, dose response, biochemical, fluorescence polarization (AID 1964);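 note: purified POS-1 fused to maltose binding protein made in E. coli; potency of compounds blocking POS-1 binding to fluorescent RNA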
T1 sequence (G5EF15 whole entry): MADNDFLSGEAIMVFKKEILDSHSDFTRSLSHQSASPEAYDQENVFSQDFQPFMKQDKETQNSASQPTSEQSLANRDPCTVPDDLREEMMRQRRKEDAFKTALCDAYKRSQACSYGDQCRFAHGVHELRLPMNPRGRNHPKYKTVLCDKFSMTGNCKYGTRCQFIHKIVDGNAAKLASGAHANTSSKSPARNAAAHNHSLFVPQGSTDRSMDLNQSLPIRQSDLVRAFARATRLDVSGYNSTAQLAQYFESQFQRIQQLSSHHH

[8] = molecular target: T2, Mannose-6-phosphate isomerase (Homo sapiens, UniProt P34949); assay: inhibitors of human PMI, primary screen, biochemical, fluorescence intensity, coupled assay (AID 1209)
T2 sequence (P34949 whole entry): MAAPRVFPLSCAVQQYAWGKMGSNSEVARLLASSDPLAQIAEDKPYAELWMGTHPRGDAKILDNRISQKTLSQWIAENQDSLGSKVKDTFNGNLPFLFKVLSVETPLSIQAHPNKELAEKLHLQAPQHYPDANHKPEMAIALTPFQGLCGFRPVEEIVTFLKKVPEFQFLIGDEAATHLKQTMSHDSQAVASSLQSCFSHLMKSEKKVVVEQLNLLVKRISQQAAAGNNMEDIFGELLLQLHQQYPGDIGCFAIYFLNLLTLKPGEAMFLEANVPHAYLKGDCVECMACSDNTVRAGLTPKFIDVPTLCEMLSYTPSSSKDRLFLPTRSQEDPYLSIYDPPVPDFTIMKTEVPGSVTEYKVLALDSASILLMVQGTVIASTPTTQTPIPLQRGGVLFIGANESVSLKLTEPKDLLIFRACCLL

[9] = molecular target: Induced myeloid leukemia cell differentiation protein Mcl-1 (Homo sapiens, UniProt Q07820); type: functional
[10] = molecular target: T2, Mannose-6-phosphate isomerase; assay: human PMI inhibitors, high substrate, primary screen, biochemical, fluorescence intensity, high mannose 6-phosphate (AID 1220)
[11] = molecular target: Glucose-6-phosphate 1-dehydrogenase (Homo sapiens, UniProt P11413); assay: human G6PD enzyme inhibitors, dose response, selectivity assay for P. falciparum G6PD inhibitor project, biochemical, fluorescence (AID 504792); type: functional
Sequence of Glucose-6-phosphate 1-dehydrogenase (P11413 whole entry): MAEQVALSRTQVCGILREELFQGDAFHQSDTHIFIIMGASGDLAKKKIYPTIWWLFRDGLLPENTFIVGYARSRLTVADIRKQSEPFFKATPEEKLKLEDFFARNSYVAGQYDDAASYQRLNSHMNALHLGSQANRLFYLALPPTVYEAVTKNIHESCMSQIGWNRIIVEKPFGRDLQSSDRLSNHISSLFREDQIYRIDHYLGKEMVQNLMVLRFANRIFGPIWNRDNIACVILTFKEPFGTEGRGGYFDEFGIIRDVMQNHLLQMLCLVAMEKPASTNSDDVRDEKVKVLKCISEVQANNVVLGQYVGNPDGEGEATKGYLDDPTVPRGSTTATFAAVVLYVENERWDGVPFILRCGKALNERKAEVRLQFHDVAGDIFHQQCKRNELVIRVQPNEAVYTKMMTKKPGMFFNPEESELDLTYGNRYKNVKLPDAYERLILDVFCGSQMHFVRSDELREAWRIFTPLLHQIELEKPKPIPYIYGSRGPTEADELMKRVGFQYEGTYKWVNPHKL

Genome polyprotein = Genome polyprotein (dengue virus type 2, UniProt P29990); assay: Dengue-2 NS5 methyltransferase inhibitors, primary screen, biochemical, confirmation dose response (AID 588689); type: functional
Sequence of Genome polyprotein (P29990 2492-3391 limits assumed): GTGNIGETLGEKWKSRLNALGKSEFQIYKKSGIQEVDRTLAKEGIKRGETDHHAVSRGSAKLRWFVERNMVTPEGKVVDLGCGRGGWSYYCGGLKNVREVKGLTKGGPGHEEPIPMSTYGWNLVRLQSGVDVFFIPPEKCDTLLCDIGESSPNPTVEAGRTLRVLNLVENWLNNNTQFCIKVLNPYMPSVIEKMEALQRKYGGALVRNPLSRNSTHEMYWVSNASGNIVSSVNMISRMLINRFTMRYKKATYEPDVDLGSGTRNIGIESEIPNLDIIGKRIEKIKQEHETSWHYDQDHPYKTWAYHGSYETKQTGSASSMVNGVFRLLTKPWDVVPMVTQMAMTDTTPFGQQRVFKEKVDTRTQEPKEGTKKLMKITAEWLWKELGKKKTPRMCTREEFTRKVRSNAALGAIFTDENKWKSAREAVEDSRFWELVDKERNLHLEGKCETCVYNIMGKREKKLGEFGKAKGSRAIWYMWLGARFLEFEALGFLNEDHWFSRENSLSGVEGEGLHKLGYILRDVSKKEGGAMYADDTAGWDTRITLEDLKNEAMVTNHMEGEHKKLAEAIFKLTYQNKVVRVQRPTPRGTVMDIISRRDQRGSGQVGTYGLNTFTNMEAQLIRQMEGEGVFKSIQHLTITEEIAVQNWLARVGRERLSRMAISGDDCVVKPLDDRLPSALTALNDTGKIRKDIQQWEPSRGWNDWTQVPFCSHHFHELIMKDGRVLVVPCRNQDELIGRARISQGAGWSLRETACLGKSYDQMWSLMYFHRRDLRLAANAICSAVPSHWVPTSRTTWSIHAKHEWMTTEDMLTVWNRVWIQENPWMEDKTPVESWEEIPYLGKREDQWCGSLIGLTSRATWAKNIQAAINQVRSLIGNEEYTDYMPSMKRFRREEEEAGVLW

Albumin = Albumin (Bos taurus, UniProt P02769); assay: Counterscreen for inhibitors of T-cell receptor (TCR)-CD3 interaction: Fluorescence-based biochemical high throughput dose response assay to identify inhibitors of T-cell receptor (TCR)-CD3 interaction using a TAMRA-labeled BSA probe.; type: functional
Sequence of Albumin (P02769 whole entry): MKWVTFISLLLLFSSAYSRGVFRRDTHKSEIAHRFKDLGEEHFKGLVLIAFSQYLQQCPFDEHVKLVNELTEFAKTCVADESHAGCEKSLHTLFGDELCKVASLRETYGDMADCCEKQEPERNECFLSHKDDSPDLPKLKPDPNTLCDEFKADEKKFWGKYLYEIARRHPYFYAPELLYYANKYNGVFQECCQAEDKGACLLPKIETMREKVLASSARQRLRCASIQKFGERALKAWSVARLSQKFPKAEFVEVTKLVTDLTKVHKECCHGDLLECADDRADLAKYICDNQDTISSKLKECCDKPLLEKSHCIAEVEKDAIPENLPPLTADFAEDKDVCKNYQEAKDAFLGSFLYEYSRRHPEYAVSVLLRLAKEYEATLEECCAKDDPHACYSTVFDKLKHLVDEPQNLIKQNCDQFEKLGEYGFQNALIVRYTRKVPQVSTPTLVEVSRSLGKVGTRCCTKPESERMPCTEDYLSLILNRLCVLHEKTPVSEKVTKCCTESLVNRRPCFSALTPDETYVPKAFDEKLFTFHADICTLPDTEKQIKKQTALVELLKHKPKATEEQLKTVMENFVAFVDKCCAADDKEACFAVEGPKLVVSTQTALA

Protein Tat = molecular target: T3, Protein Tat (Human immunodeficiency virus type 1 group M subtype B (isolate HXB2)(HIV-1), UniProt P04608); type: functional;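 note: tat binding to TAR RNA read out by fluorescence polarization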
T3 sequence (P04608 whole entry): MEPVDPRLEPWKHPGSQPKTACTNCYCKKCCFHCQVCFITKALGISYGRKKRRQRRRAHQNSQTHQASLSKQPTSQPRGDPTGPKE

[12] = molecular target: Glutathione-S-transferase (Schistosoma japonicum, UniProt Q26513); assay: biotin-GST/anti-GST TR-FRET signal inhibitors, dose response, artefact control for Vif-APOBEC3G degradation inhibitor project, biochemical (AID 1117362); type: functional
Sequence of Glutathione-S-transferase (Q26513 whole entry): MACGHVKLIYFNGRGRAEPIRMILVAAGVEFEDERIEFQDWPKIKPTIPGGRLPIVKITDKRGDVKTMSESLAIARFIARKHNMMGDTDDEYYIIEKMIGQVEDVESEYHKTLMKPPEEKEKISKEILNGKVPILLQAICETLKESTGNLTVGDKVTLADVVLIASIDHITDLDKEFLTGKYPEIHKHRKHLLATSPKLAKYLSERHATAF

[13] = molecular target: RNA-editing ligase 1, mitochondrial (Trypanosoma brucei brucei, UniProt P86926); assay: TbREL1 ligase inhibitors, dose response, biochemical, fluorescence, Trypanosoma brucei (AID 1117295); type: functional
Sequence of RNA-editing ligase 1, mitochondrial (P86926 whole entry): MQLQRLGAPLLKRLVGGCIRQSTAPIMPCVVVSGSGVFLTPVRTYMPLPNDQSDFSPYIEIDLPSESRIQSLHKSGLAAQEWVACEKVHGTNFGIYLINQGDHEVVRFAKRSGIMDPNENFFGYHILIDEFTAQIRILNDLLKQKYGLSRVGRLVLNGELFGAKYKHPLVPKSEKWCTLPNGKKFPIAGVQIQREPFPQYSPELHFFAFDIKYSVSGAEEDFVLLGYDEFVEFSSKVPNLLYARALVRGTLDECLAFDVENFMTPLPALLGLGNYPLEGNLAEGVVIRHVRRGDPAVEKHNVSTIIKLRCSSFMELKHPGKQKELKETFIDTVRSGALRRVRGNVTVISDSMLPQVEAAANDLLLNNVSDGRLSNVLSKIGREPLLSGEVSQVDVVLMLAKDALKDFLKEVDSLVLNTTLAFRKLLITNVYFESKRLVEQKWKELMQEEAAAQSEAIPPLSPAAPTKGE

Paired box protein Pax-8 = Paired box protein Pax-8 (Homo sapiens, UniProt Q06710); assay: inhibitors of PAX8-driven TPO luciferase reporter, dose response, RMG-I cells, cherry-pick (AID 687027); type: functional, cell-based;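 note: luciferase reporter driven by Pax8 target thyroperoxidase promoter measured by SteadyGlo luminescence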
Sequence of Paired box protein Pax-8 (Q06710 whole entry): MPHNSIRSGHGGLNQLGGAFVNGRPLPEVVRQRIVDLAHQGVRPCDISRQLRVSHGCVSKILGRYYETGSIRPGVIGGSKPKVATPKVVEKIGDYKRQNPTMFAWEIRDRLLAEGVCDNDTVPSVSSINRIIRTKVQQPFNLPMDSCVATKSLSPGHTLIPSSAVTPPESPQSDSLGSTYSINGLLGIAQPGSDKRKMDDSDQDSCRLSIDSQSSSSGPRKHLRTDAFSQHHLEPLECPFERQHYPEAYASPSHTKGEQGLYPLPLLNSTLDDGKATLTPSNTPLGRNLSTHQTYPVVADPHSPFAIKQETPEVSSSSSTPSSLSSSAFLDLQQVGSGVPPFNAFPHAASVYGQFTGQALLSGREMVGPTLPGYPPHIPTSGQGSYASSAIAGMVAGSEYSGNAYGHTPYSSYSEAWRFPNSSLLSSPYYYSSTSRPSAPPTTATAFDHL

[14] = IOSE-T80 ovarian epithelial cell cytotoxicity, dose response, cytotoxicity control for PAX8 inhibitor project, plate reader, dry powder samples (AID 743045); type: functional, cell-based
[15] = inhibitors of CMV-promoter luciferase reporter, dose response, counter-screen for Pax8 inhibitor project, cell-based, HEK293, luminescence, dry powder (AID 743020); type: functional
[16] = NIH:OVCAR-3 ovarian cancer cell cytotoxicity, dose response, PAX8 inhibitor project, plate reader, dry powder samples (AID 743044); type: functional, cell-based
[17] = cytotoxicity in OVCAR8 ovarian cancer cells, dose response, PAX8 project, cell-based, plate reader, dry powder samples (AID 743197); type: functional; conditions: OVCAR-8
[18] = molecular target: T4, Potassium channel subfamily K member 9 (Homo sapiens, UniProt Q9NPC2); assay: KCNK9 (TASK3) current inhibition by patch clamp, SAR follow-up, selectivity assay for TASK1 (KCNK3) inhibitor project, cell-based, automated electrophysiology (AID 652210); type: functional
T4 sequence (Q9NPC2 whole entry): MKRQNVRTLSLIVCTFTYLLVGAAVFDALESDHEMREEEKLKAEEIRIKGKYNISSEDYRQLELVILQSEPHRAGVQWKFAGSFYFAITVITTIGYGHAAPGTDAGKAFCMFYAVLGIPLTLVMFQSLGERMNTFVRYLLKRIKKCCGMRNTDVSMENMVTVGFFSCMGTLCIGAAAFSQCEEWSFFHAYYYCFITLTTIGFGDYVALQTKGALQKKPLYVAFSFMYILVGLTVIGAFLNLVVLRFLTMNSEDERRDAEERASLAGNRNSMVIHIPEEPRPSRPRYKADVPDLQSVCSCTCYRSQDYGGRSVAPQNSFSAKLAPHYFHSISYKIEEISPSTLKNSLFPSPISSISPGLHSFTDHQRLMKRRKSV

[19] = molecular target: T4, Potassium channel subfamily K member 9; assay: TASK3 (KCNK9) channel inhibitors, thallium flux, SAR follow-up, selectivity assay for TASK1 inhibitor project, cell-based, FluxOR thallium flux, concentration-response (AID 652211); type: functional;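 note: potency is for inhibitors of the channel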
[20] = molecular target: Potassium channel subfamily K member 3 (Rattus norvegicus, UniProt O54912); assay: SAR analysis for the identification of selective inhibitors of the two-pore domain potassium channel TASK1(KCNK3):Automated Electrophysiology.; type: functional
Sequence of Potassium channel subfamily K member 3 (Rattus norvegicus, UniProt O54912) (O54912 whole entry, the tested form may be a part): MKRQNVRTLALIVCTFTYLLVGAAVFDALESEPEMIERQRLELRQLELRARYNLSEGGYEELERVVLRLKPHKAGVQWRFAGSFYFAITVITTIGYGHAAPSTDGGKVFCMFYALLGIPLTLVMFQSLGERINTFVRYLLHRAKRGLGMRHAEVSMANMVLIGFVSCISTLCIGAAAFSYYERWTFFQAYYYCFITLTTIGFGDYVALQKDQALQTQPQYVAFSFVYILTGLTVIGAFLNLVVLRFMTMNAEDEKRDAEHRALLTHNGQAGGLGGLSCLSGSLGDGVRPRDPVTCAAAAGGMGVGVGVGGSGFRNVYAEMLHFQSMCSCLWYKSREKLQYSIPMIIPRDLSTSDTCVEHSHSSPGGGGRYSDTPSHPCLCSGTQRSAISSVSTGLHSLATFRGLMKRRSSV

[21] = molecular target: Potassium channel subfamily K member 3 (Homo sapiens, UniProt O14649); assay: TASK1 (KCNK3) potassium channel inhibitors, SAR follow-up, CHO cells, FluxOR thallium flux (AID 652212); type: functional
Sequence of Potassium channel subfamily K member 3 (Homo sapiens, UniProt O14649) (O14649 whole entry): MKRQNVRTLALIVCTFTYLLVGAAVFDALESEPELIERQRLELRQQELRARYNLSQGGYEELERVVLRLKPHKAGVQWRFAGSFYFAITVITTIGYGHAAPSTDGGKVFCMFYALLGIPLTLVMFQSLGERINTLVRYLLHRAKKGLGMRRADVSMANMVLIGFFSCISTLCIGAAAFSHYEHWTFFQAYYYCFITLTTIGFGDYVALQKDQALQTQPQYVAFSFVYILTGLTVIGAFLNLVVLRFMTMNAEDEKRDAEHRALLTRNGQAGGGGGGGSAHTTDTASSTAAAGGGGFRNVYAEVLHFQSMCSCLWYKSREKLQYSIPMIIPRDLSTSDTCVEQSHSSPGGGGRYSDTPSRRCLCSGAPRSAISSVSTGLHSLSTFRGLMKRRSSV

Sequence of Photoreceptor-specific nuclear receptor (Q9Y5X4 whole entry, the tested form may be a part): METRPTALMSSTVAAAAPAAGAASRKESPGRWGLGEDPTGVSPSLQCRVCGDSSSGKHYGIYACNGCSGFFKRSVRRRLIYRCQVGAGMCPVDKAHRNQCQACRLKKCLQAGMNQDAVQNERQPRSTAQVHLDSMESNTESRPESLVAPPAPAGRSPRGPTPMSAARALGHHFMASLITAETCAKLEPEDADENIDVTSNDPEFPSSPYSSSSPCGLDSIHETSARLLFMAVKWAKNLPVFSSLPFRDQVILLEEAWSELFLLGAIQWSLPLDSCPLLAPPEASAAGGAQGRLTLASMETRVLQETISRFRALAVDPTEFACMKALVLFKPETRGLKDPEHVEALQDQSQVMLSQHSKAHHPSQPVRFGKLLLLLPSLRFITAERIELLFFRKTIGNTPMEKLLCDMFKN

## CN1CCN(C(=O)c2cccc(-c3cnc4cnc(-c5ccccc5Oc5ccccc5)cn34)c2)CC1
[1]
  IC50: 1.72 µM (active)
[2]
  AC50: 47.8 µM (active)
[3]
  AC50: > 52 µM (inactive)
[4]
  AC50: 5.86 µM (active)

## C[C@@H]1CN([C@H](C)CO)C(=O)c2c(c3ccccc3n2C)-c2ccccc2CO[C@@H]1CN(C)S(=O)(=O)c1ccc([N+](=O)[O-])cc1
[5]
  AC50: 7.62 µM (active)

## CC(C(=O)Nc1ccncc1)N(c1ccccc1Cl)S(C)(=O)=O (stereo not given)
[6]
  EC50: > 30 µM (inactive)

## C/N=c1\scc(C)n1/N=C/c1ccc(O)c(O)c1O
[7]
  EC50: > 300 µM (inconclusive)
[8]
  IC50: > 50 µM (not active)
[9]
  IC50: 2.72 µM (active)
[10]
  IC50: > 50 µM (not active)
[11]
  IC50: 44 µM (inactive)
Genome polyprotein
  IC50: 13.9 µM (active)
Albumin
  IC50: > 94.1 µM (inactive)
Protein Tat
  IC50: 49.8 µM (inconclusive)
[12]
  IC50: > 100 µM (active)
[13]
  IC50: > 96.6 µM (inactive)

## O=C(Nc1ccc(F)cc1)N1CC(=O)N2[C@@H](CO)[C@H](c3ccc(-c4ccc(F)cc4)cc3)[C@@H]2C1
Paired box protein Pax-8
  AC50: 6.32 µM (active)
[14]
  AC50: 36.7 µM (active)
[15]
  AC50: 34.5 µM (active)
[16]
  AC50: 18.1 µM (active)
[17]
  AC50: 25.6 µM (active)

## CCOc1ccccc1NC(=O)c1cccc(NC(=O)c2ccccc2)c1
[18]
  IC50: 2.14 µM (active)
[19]
  IC50: 1.43 µM (active)
[20]
  IC50: 0.06 µM (active)
[21]
  IC50: 0.121 µM (active)
